Experimental data taken from US20170094972A1, “Compounds and Compositions Having Knock-Down Activity Against Insect Pests” (priority 2015, published 2017).

Columns and labels:
Assay type in all cases: in vivo
[1] = system: Anopheles stephensi; experiment: 6 well plate test, knockdown after 1 hour and mortality after 24 and 48 hours; parameters: KD: unit not given here; settings: for 24 hr mort / 48 hr mort / KD: Table B4; for KD: after 1 hour
Procedure: The individual wells of six (6) well tissue culture plates were treated with […] of an ethanol solution containing a test compound at a defined concentration. Once the deposits were dry, ten non-blood fed adult female Anopheles stephensi (between two to five day old) were added to each well, and sustained with a 10% sucrose solution in a cotton wool plug. Assessment of the knockdown after 1 hour (Tables B1-B10), and mortality after 24 and 48 hours (Tables B1-B4) was carried out.
(§1) In case of multiple tests, the mean value is reported.

[2] = system: female mosquitoes; experiment: Tunnel study based on WHOPES tunnel tests with Hemotek membrane feeding device
Procedure: Based on the “WHOPES tunnel tests” (described at http://apps.who.int/iris/bitstream/10665/80270/1/9789241505277_eng.pdf), except that live guniea pig baits were replaced with a Hemotek membrane feeding device, filled with blood and kept constant at 37° C. to mimic a human host. All tests were done under standardised laboratory controlled conditions (27° C.+2° C. under subdued light). The tunnel apparatus was a 60×30×30 cm glass case open at each end and the floor was lined with wet blue roll in order to maintain humidity. A 30×30×30 cm cage, covered in untreated netting, was placed at the release end. The test nets were cut to 25×25 cm squares and fitted into cardboard frames that allow a 20×20 cm area to be exposed. Nine holes, 1 cm in diameter, were made in the netting in the pattern specified in the WHOPES test. The frames were then fitted into the tunnel one third of the way down its length. A Hemotek device, filled with blood and kept constant at 37° C. to mimic a human host, was placed in the smaller area of the glass tunnel behind the test netting, and the end of the tunnel closed with a netting screen. A human sat at the Hemotek end of the tunnels for the duration of the test. At the start of the test (13.30-14.00), 100 female mosquitoes (non-blood fed, aged 5-8 days) were introduced into the cage. Mosquitoes are free to fly in the tunnel but have to make contact with the piece of netting and locate the holes in it before passing through to reach the bait. After 7 hours (20.30-21.00) the mosquitoes were counted in each section of the tunnel. The number of mosquitoes knocked down and blood fed were recorded. Blood-feeding inhibition was assessed by comparing the proportion of blood-fed females (alive or dead) in treated and control tests. Four tunnels were run simultaneously each day, with one control containing untreated netting included with all runs. Three replicates were carried out per treatment.
as §1

[3] = system: adult female mosquitoes; experiment: Bottle assay based on CDC bottle assay; settings: Table B15; rates not given
Procedure: Based on the “CDC bottle assay” (described at http://www.cdc.gov/malaria/resources/pdf/fsp/ir_manual/ir_cdc_bioassay_en.pdf) 1 ml of ethanol containing a test compound at a defined concentration was added to a 250 ml glass bottle and the bottles were placed on a rolling table to coat the inner surfaces as the solvent evaporated. Once dry, twenty five non-blood fed adult female mosquitoes of the appropriate species and strains (each three day old) were aspirated from the stock culture and gently blown into the exposure bottles. The lid of the bottle was replaced and the bottle placed upright out of direct sun light under standard culture conditions, nominally 28° C. and 60-80% relative humidity.
A stopwatch was started, and the assessment of the knock-down were made after 15 mins and 60 minutes. A mosquito was said to be knocked down if it was unable to stand, following the CDC definition. The bottles were replaced in an upright position when not being assessed.
After one hour the mosquitoes were carefully removed from the bottle with an aspirator and placed in a recovery cup. The mosquitoes were supplied with a 10% sucrose solution on a cotton wool bung, and stored under culture conditions. Assessments of the mortality were made after 24 hours and 48 hours (B15).
Each treatment was replicated a minimum of four times, with the mean knockdown or mortality recorded. In each study, a set of bottles was infested with a known insecticide susceptible strain of mosquitoes from the same genera as the resistant strains.

[4] = system: Anopheles stephensi; experiment: 12 well plate knockdown test; settings: 1 h, read-out: Anopheles stephensi 1 hour % KD; for pest or weed control at 0.2 ppm: Rate 0.2 PPM; for pest or weed control at 2 ppm: Rate 2 PPM; for pest or weed control at 20 ppm: Rate 20 PPM; for pest or weed control at 200 ppm: Rate 200 PPM
Procedure: (§2) The individual wells of a twelve (12) well tissue culture plates were treated with 100 μl of an ethanol solution containing a test compound at a defined concentration. Once the deposits were dry, five non-blood fed adult female Aedes aegypti or Anopheles stephensi (between two to five day old) were added to each well, and sustained with a 10% sucrose solution in a cotton wool plug. Assessment of the knockdown after 1 hour was carried out. Where multiple replicates of a treatment have been undertaken, the mean of those replicates is reported.

[5] = system: Aedes aegypti; experiment: 12 well plate knockdown test; settings: 1 h, read-out: Aedes aegypti 1 hour % KD; for pest or weed control at 0.2 ppm: Rate 0.2 PPM; for pest or weed control at 2 ppm: Rate 2 PPM; for pest or weed control at 20 ppm: Rate 20 PPM; for pest or weed control at 200 ppm: Rate 200 PPM
Procedure: as §2

SMILES	pest or weed control at 0.2 ppm [4] [%]	pest or weed control at 2 ppm [4] [%]	pest or weed control at 20 ppm [4] [%]	pest or weed control at 200 ppm [4] [%]	pest or weed control at 0.2 ppm [5] [%]	pest or weed control at 2 ppm [5] [%]	pest or weed control at 20 ppm [5] [%]	pest or weed control at 200 ppm [5] [%]	also measured
CC1(C)[C@H](C(=O)O[C@H](C#N)c2cccc(Oc3ccccc3)c2)[C@@H]1C=C(Br)Br [Deltamethrin, reference compound]									knockdown after 1 hour, Alone ([1]; Table B6, 0.03125 ppm): 20; knockdown after 1 hour, Alone ([1]; Table B6, 0.0625 ppm): 40; knockdown after 1 hour, Alone ([1]; Table B6, 0.125 ppm): 40; knockdown after 1 hour, Alone ([1]; Table B6, 0.25 ppm): 100; knockdown after 1 hour, Alone ([1]; Table B6, 0.5 ppm): 100; knockdown after 1 hour, Alone ([1]; Table B6, 1 ppm): 100; mortality at 5 mg/m2 ([2]; 24 h, Table B13, 5 mg/m2): 13%; % 1 hour KD ([2]; Table B12, 5 mg/m2): 0%; % Blood fed ([2]; Table B12, 5 mg/m2): 0%; % Through net ([2]; Table B12, 5 mg/m2): 0.93%; % Blood fed ([2]; Table B13, 5 mg/m2): 52.77%; % Through net ([2]; Table B13, 5 mg/m2): 67.6%
N#CCNC(=O)c1cnccc1C(F)(F)F [Flonicamid]									24 hour % mort [3]: 0%; 48 hour % mort [3]: 0%; % 1 hour KD [3]: 0%
CO/N=C(\C)CNC(=O)c1cnccc1C(F)(F)F [I.18]	0	0	0	40	40	100	100	100	
N/C(=N/C(=O)c1cnccc1C(F)(F)F)C1CC1 [I.19]	40	60	100	100	0	100	100	100	
FC(F)(F)c1ccncc1C1=NCCN1 [I.20]	20	60	100	100	0	40	100	100	
CSCC/C(N)=N\C(=O)c1cnccc1C(F)(F)F [I.21]	20	60	100	100	0	0	0	100	
NC(=S)c1cnccc1C(F)(F)F [I.22]	40	60	60	100	100	100	100	100	
CC(=O)CNC(=O)c1cnccc1C(F)(F)F [I.23]	0	20	40	100	40	100	100	100	
CS(=O)(=O)NC(=O)c1cnccc1C(F)(F)F [I.24]	40	60	100	100	100	100	100	100	
C[Si](C)(C)CNC(=O)c1cnccc1C(F)(F)F [I.25]	80	80	100	100	100	100	100	100	
CC(NC(=O)c1cnccc1C(F)(F)F)C(N)=S (stereo not drawn) [I.26]	0	0	100	100	0	100	100	100	
CCNNC(=O)c1cnccc1C(F)(F)F [I.27]	0	0	100	100	0	100	100	100	
CN(OC(=O)Oc1ccccc1)C(=O)c1cnccc1C(F)(F)F [I.28]	0	0	40	100	20	40	60	100	
COCCOC(=O)ON(C(=O)c1cnccc1C(F)(F)F)C(C)C [I.29]	20	60	100	100	0	0	0	100	
COC(=O)N(C(=O)N1CO[C@@]2(C(=O)OC)Cc3cc(Cl)ccc3C2=N1)c1ccc(OC(F)(F)F)cc1 [Indoxacarb]									24 hr mort ([1]; 12.5 ppm alone): 0.0; 48 hr mort ([1]; 12.5 ppm alone): 0.0; KD ([1]; 12.5 ppm alone): 0.0; 24 hr mort ([1]; 25 ppm alone): 0.0; 48 hr mort ([1]; 25 ppm alone): 0.0; KD ([1]; 25 ppm alone): 0.0; 24 hr mort ([1]; 50 ppm alone): 0.0; 48 hr mort ([1]; 50 ppm alone): 0.0; KD ([1]; 50 ppm alone): 0.0; 24 hr mort ([1]; 100 ppm alone): 0.0; 48 hr mort ([1]; 100 ppm alone): 0.0; KD ([1]; 100 ppm alone): 0.0; knockdown after 1 hour, Alone ([1]; Table B7, 25 ppm): 0; knockdown after 1 hour, Alone ([1]; Table B7, 50 ppm): 0; knockdown after 1 hour, Alone ([1]; Table B7, 100 ppm): 0; knockdown after 1 hour, Alone ([1]; Table B7, 200 ppm): 0; % 24 hour mortality ([2]; Table B14, 20 mg/m2): 7.6%; % Blood fed ([2]; Table B14, 20 mg/m2): 31.4%
